# Laboratory results reported in ChEMBL document CHEMBL1137176, “Structure-activity relationships of piperazinebenzylamines as potent and selective agonists of the human melanocortin-4 receptor” (Bioorg Med Chem Lett, 2004).
# Columns and labels:
# Melanocortin receptor 4 [1] = molecular target: T1, Melanocortin receptor 4 (Homo sapiens, UniProt P32245); assay: Displacement of [125I]NDP-MSH from HEK293 cells expressing human melanocortin-4 receptor; format: cell-based
# Melanocortin receptor 4 [2] = molecular target: T1, Melanocortin receptor 4; assay: Effective concentration against cAMP release in CHO cells expressing human melanocortin-4 receptor; format: functional, cell-based
# [3] = molecular target: T2, Melanocyte-stimulating hormone receptor (Homo sapiens, UniProt Q01726); assay: Displacement of [125I]NDP-MSH from HEK293 cells expressing human melanocortin-1 receptor; format: cell-based
# Target sequence in this assay (Q01726 whole entry): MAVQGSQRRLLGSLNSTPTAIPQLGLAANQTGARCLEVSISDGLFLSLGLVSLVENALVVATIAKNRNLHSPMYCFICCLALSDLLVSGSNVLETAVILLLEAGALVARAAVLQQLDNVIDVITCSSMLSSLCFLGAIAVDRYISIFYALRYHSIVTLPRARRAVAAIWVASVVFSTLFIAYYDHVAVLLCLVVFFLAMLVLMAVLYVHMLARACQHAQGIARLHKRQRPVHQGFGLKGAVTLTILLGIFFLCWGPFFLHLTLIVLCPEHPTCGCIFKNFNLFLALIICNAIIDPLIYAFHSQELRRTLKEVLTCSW
# Melanocortin receptor 3 = Melanocortin receptor 3 (Homo sapiens, UniProt P41968); assay: Displacement of [125I]NDP-MSH from HEK293 cells expressing human melanocortin-3 receptor; format: cell-based
# Chain of Melanocortin receptor 3 (P41968 whole entry): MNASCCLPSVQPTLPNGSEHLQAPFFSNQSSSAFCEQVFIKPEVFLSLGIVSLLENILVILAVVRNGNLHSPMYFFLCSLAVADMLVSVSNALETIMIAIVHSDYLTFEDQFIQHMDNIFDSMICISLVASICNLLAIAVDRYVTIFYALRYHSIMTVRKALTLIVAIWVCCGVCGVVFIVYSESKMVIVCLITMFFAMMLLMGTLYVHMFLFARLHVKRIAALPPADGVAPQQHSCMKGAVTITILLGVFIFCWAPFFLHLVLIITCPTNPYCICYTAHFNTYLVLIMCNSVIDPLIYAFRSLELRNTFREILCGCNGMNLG
# Melanocortin receptor 5 = Melanocortin receptor 5 (Homo sapiens, UniProt P33032); assay: Displacement of [125I]NDP-MSH from HEK293 cells expressing human melanocortin-5 receptor; format: cell-based
# Chain of Melanocortin receptor 5 (P33032 whole entry): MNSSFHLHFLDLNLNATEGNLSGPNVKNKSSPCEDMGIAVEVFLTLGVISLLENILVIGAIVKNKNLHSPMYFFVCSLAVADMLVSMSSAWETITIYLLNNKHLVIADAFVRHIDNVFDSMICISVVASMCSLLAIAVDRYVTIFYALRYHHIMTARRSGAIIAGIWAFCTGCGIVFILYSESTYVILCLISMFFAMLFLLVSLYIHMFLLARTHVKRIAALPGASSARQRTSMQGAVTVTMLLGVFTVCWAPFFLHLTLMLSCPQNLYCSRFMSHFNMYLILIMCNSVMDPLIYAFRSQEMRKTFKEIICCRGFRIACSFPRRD
# Melanocortin receptor 4 [4] = molecular target: T1, Melanocortin receptor 4; assay: Effective concentration for cAMP release in HEK293 cells expressing human melanocortin-4 receptor; format: functional, cell-based
# Melanocortin receptor 4 [5] = molecular target: T1, Melanocortin receptor 4; assay: Percent intrinsic activity of alpha-MSH-stimulated cAMP level in HEK293 cells expressing human melanocortin-4 receptor; format: functional, cell-based
# [6] = molecular target: T2, Melanocyte-stimulating hormone receptor; assay: Displacement of [125I]NDP-MSH from human melanocortin-1 receptor expressed in HEK 293 cells at 10 uM; format: cell-based; settings: HEK293
# Target sequence in this assay (Q01726 whole entry, looked up): as the sequence (Q01726 whole entry) above
# T1 sequence (P32245 whole entry): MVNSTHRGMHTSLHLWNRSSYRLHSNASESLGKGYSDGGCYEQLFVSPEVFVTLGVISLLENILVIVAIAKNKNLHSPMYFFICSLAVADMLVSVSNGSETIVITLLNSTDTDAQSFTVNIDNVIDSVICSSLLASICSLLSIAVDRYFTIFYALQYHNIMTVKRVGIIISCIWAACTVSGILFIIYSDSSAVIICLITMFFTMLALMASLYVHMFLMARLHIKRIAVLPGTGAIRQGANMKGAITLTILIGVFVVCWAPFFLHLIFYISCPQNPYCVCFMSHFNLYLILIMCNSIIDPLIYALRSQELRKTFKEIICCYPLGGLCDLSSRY
Ki (Melanocortin receptor 4 [1]),EC50 (Melanocortin receptor 4 [2]),Structure (SMILES),other results
25 nM,34 nM,CC(NC1CCC(N)CC1)c1ccccc1N1CCN(C(=O)[C@@H](Cc2ccc(Cl)cc2)NC(=O)[C@H]2Cc3ccccc3CN2)CC1 (stereo partly drawn),
102 nM,208 nM,O=C(N[C@H](Cc1ccc(Cl)cc1)C(=O)N1CCN(c2ccccc2CNCC2CCNCC2)CC1)[C@H]1Cc2ccccc2CN1,
13 nM,12 nM,CC(N[C@H]1CCNC1)c1ccccc1N1CCN(C(=O)[C@@H](Cc2ccc(Cl)cc2)NC(=O)[C@H]2Cc3ccccc3CN2)CC1 (stereo partly drawn),Ki [3]: 2100 nM; Ki (Melanocortin receptor 3): 3600 nM; Ki (Melanocortin receptor 5): 590 nM
6.4 nM,3.8 nM,CC(NC1CCCNC1)c1ccccc1N1CCN(C(=O)[C@@H](Cc2ccc(Cl)cc2)NC(=O)[C@H]2Cc3ccccc3CN2)CC1 (stereo partly drawn),Ki [3]: 1500 nM; Ki (Melanocortin receptor 3): 2000 nM; Ki (Melanocortin receptor 5): 270 nM; EC50 (Melanocortin receptor 4 [4]): 4.7 nM; IA (Melanocortin receptor 4 [5]): 100%
120 nM,36 nM,O=C(N[C@H](Cc1ccc(Cl)cc1)C(=O)N1CCN(c2ccccc2CNCCCO)CC1)[C@H]1Cc2ccccc2CN1,
23 nM,174 nM,CC(NC1CC1)c1ccccc1N1CCN(C(=O)[C@@H](Cc2ccc(Cl)cc2)NC(=O)[C@H]2Cc3ccccc3CN2)CC1 (stereo partly drawn),
90 nM,253 nM,O=C(N[C@H](Cc1ccc(Cl)cc1)C(=O)N1CCN(c2ccccc2CNC2CC2)CC1)[C@H]1Cc2ccccc2CN1,
11 nM,72 nM,CC(NC1CCCC1)c1ccccc1N1CCN(C(=O)[C@@H](Cc2ccc(Cl)cc2)NC(=O)[C@H]2Cc3ccccc3CN2)CC1 (stereo partly drawn),
24 nM,577 nM,CC(NCCc1cccs1)c1ccccc1N1CCN(C(=O)[C@@H](Cc2ccc(Cl)cc2)NC(=O)[C@H]2Cc3ccccc3CN2)CC1 (stereo partly drawn),
52 nM,240 nM,CCN(CC)Cc1ccccc1N1CCN(C(=O)[C@@H](Cc2ccc(Cl)cc2)NC(=O)[C@H]2Cc3ccccc3CN2)CC1,
12 nM,138 nM,CC(NCc1ccco1)c1ccccc1N1CCN(C(=O)[C@@H](Cc2ccc(Cl)cc2)NC(=O)[C@H]2Cc3ccccc3CN2)CC1 (stereo partly drawn),
127 nM,91 nM,NCCNCc1ccccc1N1CCN(C(=O)[C@@H](Cc2ccc(Cl)cc2)NC(=O)[C@H]2Cc3ccccc3CN2)CC1,
13 nM,15 nM,CC(N[C@H]1CCCCC1N)c1ccccc1N1CCN(C(=O)[C@@H](Cc2ccc(Cl)cc2)NC(=O)[C@H]2Cc3ccccc3CN2)CC1 (stereo partly drawn),
33 nM,2060 nM,CC(NCCc1ccccc1F)c1ccccc1N1CCN(C(=O)[C@@H](Cc2ccc(Cl)cc2)NC(=O)[C@H]2Cc3ccccc3CN2)CC1 (stereo partly drawn),
55 nM,40 nM,CN(CCO)Cc1ccccc1N1CCN(C(=O)[C@@H](Cc2ccc(Cl)cc2)NC(=O)[C@H]2Cc3ccccc3CN2)CC1,
66 nM,164 nM,O=C(N[C@H](Cc1ccc(Cl)cc1)C(=O)N1CCN(c2ccccc2CNC2CCCC2)CC1)[C@H]1Cc2ccccc2CN1,
380 nM,274 nM,NCc1ccccc1N1CCN(C(=O)[C@@H](Cc2ccc(Cl)cc2)NC(=O)[C@H]2Cc3ccccc3CN2)CC1,Ki (Melanocortin receptor 5): 2300 nM

# More lines, now with the values behind:
Structure (SMILES),Ki (Melanocortin receptor 4 [1]),EC50 (Melanocortin receptor 4 [2]),other results
O=C(N[C@H](Cc1ccc(Cl)cc1)C(=O)N1CCN(c2ccccc2CNCCc2cccc(F)c2)CC1)[C@H]1Cc2ccccc2CN1,14 nM,460 nM,
COCCN(C)Cc1ccccc1N1CCN(C(=O)[C@@H](Cc2ccc(Cl)cc2)NC(=O)[C@H]2Cc3ccccc3CN2)CC1,49 nM,51 nM,
O=C(O)CCNCc1ccccc1N1CCN(C(=O)[C@@H](Cc2ccc(Cl)cc2)NC(=O)[C@H]2Cc3ccccc3CN2)CC1,490 nM,90 nM,
O=C(N[C@H](Cc1ccc(Cl)cc1)C(=O)N1CCC(Cn2cncn2)(C2CCCCC2)CC1)[C@H]1Cc2ccccc2CN1,,,Ki (Melanocortin receptor 5): 860 nM
CN(CCc1ccccn1)Cc1ccccc1N1CCN(C(=O)[C@@H](Cc2ccc(Cl)cc2)NC(=O)[C@H]2Cc3ccccc3CN2)CC1,35 nM,190 nM,
O=C(N[C@H](Cc1ccc(Cl)cc1)C(=O)N1CCN(c2ccccc2CN2CCN(c3ccccc3)CC2)CC1)[C@H]1Cc2ccccc2CN1,145 nM,300 nM,
O=C(N[C@H](Cc1ccc(Cl)cc1)C(=O)N1CCN(c2ccccc2CNCCc2ccc(F)cc2)CC1)[C@H]1Cc2ccccc2CN1,81 nM,487 nM,
O=C(N[C@H](Cc1ccc(Cl)cc1)C(=O)N1CCN(c2ccccc2CNCc2ccco2)CC1)[C@H]1Cc2ccccc2CN1,53 nM,274 nM,
CCCC(=O)C1(C2CCCCC2)CCN(C(=O)[C@@H](Cc2ccc(Cl)cc2)NC(=O)[C@@H](Cc2ncc[nH]2)NC(=O)c2ccccc2)CC1,,2.9 nM,
O=C(N[C@H](Cc1ccc(Cl)cc1)C(=O)N1CCN(c2ccccc2Cn2cncn2)CC1)[C@H]1Cc2ccccc2CN1,270 nM,110 nM,Ki (Melanocortin receptor 5): 1200 nM; inhibition [6]: 36%
O=C(N[C@H](Cc1ccc(Cl)cc1)C(=O)N1CCN(c2ccccc2CNCCc2ccccc2F)CC1)[C@H]1Cc2ccccc2CN1,27 nM,910 nM,Ki (Melanocortin receptor 3): 2300 nM; Ki (Melanocortin receptor 5): 260 nM
CN(Cc1ccccc1)Cc1ccccc1N1CCN(C(=O)[C@@H](Cc2ccc(Cl)cc2)NC(=O)[C@H]2Cc3ccccc3CN2)CC1,84 nM,632 nM,
O=C(N[C@H](Cc1ccc(Cl)cc1)C(=O)N1CCN(c2ccccc2CNCCc2cccs2)CC1)[C@H]1Cc2ccccc2CN1,,,Ki [3]: 6000 nM; Ki (Melanocortin receptor 3): 1800 nM; Ki (Melanocortin receptor 5): 240 nM
CN(Cc1cccnc1)Cc1ccccc1N1CCN(C(=O)[C@@H](Cc2ccc(Cl)cc2)NC(=O)[C@H]2Cc3ccccc3CN2)CC1,77 nM,94 nM,
O=C(N[C@H](Cc1ccc(Cl)cc1)C(=O)N1CCN(c2ccccc2CN2CCC(N3CCCC3)CC2)CC1)[C@H]1Cc2ccccc2CN1,24 nM,146 nM,
C[C@H]1CN(Cc2ccccc2N2CCN(C(=O)[C@@H](Cc3ccc(Cl)cc3)NC(=O)[C@H]3Cc4ccccc4CN3)CC2)[C@@H](C)CN1,19 nM,18 nM,
